Test system: ovolysozyme
Assay: AGE formation inhibitory action: formation of lysozyme dimer (crosslinking) on incubation with xylose, SDS-PAGE with silver staining
Type: biochemical
Details: 1 mg/ml ovolysozyme, 100 mM xylose, pH 7.4 phosphate-buffered saline, 37° C., 21 days; dimer (28.8 Kda) formation relative to control
Protocol: Solutions of the test compound shown in Table 1 in dimethyl sulfoxide, said solutions containing said test compound at various concentrations, were each added together with 1 mg/ml of ovolysozyme and 100 mM of xylose to a phosphate-buffered physiological saline of pH 7.4. Each reaction mixture was then incubated at 37° C. for 21 days. A portion of the reaction mixture, said portion being in a predetermined amount, was then separated by sodium lauryl sulfate-polyacrylamide gel electrophoresis (SDS-PAGE). After the electrophoresis, the gel was treated by silver staining to stain proteins. AGE formation inhibitory action of the test compound was calculated in terms of 50% inhibitory concentration by image-processing and analyzing the degree of formation of the dimer (28.8 Kda) of lysozyme (14.4 Kda) relative to that in a control, that is, a reaction mixture not added with the test compound while making use of NIH Image Ver. 1.55.

Row | SMILES | AGE formation inhibitory action, 50% inhibitory concentration (IC50) [µg/mL]
1 | CCCN(CCC)C(=O)C(CCC(=O)O)NC(=O)C=C1SC=CS1 (centres unmarked) [Example 1, 5-(dipropylamino)-4-((2-(1,3-dithiol-2-ylidene)acetyl)amino)-5-oxopentanoic acid] | 30
2 | NN=C(N)N [Amionoguanidine, aminoguanidine] | 30

Source: patent US5962509A, “Dithiolylidene acetamide derivatives” (SSP Co., Ltd., priority 1997, dated 1999)
